According to ChEMBL document CHEMBL5465560, “Selectivity Literature for EUbOPEN Chemogenomic Library” (2024):

Key:
[1] = molecular target: T1, Mitogen-activated protein kinase kinase kinase kinase 2 (Homo sapiens) (UniProt Q12851); assay: Selectivity interaction (ActivX KiNativ screen (kinase selectivity in THP-1 cell lysates)) EUB0000639a MAP4K2; type: subcellular; conditions: lysate, at 0.04 µM
T1 sequence (whole entry): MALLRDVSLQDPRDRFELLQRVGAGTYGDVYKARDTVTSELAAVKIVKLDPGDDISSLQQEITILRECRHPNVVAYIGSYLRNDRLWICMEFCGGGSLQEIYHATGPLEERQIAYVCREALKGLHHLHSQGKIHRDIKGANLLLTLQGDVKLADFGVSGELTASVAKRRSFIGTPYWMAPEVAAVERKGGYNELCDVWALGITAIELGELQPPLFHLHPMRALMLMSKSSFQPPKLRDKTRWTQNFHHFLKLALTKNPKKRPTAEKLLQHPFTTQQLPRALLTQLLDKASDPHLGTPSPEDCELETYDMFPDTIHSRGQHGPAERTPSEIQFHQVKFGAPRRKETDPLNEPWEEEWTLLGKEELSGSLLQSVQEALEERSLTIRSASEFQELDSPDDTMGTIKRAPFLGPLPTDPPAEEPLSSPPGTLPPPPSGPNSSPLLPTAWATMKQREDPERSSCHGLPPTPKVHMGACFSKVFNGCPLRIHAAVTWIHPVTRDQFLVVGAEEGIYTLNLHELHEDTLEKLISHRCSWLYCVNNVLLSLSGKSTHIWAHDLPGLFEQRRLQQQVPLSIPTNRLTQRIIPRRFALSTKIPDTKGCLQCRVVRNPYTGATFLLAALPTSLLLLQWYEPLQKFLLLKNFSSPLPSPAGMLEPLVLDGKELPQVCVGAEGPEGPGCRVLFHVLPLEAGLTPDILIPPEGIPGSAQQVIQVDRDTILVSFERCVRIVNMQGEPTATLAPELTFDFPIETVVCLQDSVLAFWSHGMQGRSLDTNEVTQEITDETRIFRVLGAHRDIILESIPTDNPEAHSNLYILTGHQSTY

[2] = molecular target: Ribosomal protein S6 kinase alpha-1 (Homo sapiens, UniProt Q15418); assay: Selectivity interaction (ActivX KiNativ screen (kinase selectivity in THP-1 cell lysates)) EUB0000639a RPS6KA1; type: subcellular; conditions: lysate, at 5 µM
[3] = molecular target: Histone-lysine N-methyltransferase NSD3 (Homo sapiens, UniProt Q9BZ95); assay: Selectivity interaction (Binding affinity assay (SPR measurement)) EUB0000270b NSD3
[4] = Selectivity interaction (KinomeScan (DiscoverX)) EUB0000595a CDPK1; conditions: at 10 µM
[5] = molecular target: Serine/threonine-protein kinase MRCK alpha (Homo sapiens) (UniProt Q5VT25); assay: Selectivity interaction (KinomeScan (DiscoverX)) EUB0000229b CDC42BPA; conditions: at 10 µM
[6] = molecular target: Ephrin type-A receptor 2 (Homo sapiens) (UniProt P29317); assay: Selectivity interaction (KinomeScan (DiscoverX)) EUB0001079a EPHA2; conditions: at 1 µM
[7] = molecular target: T2, Mitogen-activated protein kinase kinase kinase kinase 3 (Homo sapiens) (UniProt Q8IVH8); assay: Selectivity interaction (KinomeScan (DiscoverX)) EUB0001079a MAP4K3; conditions: at 1 µM
T2 sequence (whole entry): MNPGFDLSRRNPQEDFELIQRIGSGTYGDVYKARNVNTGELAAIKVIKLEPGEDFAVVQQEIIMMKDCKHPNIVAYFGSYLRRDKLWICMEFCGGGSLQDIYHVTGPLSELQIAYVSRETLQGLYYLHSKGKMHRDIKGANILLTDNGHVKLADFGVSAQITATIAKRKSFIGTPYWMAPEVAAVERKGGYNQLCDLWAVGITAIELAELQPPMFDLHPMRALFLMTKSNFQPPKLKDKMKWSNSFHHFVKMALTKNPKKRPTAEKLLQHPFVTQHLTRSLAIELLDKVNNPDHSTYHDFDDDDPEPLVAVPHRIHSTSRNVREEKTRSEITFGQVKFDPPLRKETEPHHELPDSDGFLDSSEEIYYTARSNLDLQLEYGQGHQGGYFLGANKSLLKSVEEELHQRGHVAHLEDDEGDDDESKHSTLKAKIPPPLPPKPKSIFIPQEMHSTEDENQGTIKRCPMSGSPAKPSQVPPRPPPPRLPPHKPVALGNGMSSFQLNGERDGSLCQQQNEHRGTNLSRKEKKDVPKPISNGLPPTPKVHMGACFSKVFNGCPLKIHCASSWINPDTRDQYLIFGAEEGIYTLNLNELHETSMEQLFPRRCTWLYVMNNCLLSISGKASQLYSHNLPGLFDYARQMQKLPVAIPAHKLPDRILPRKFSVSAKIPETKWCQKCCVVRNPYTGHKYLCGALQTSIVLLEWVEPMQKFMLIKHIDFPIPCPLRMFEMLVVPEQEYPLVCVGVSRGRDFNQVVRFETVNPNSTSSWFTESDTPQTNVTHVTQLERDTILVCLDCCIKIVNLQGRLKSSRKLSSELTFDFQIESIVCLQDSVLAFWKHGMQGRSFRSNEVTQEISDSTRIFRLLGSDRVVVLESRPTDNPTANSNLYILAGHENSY

[8] = molecular target: T3, Homeodomain-interacting protein kinase 4 (Homo sapiens) (UniProt Q8NE63); assay: Selectivity interaction (ProQinase) EUB0000171b HIPK4
T3 sequence (whole entry): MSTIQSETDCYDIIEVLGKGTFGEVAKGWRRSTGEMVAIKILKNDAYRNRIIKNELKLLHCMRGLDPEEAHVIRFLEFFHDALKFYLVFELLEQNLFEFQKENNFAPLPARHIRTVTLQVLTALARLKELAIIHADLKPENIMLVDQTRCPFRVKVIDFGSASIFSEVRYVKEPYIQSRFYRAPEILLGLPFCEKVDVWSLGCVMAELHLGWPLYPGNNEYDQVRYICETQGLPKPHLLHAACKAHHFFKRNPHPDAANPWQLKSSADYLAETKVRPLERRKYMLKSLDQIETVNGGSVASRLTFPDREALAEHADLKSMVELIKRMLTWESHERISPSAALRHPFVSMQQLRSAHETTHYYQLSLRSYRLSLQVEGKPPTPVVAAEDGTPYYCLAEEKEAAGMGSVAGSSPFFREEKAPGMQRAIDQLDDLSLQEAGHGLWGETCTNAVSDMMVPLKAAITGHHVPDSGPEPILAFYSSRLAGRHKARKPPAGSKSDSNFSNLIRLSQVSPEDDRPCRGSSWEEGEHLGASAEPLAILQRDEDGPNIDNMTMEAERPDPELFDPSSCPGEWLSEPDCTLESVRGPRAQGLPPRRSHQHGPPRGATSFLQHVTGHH

[9] = molecular target: Tyrosine-protein kinase Yes (Homo sapiens) (UniProt P07947); assay: Selectivity interaction (Upstate Kinase Profiler service (Millipore)) EUB0000056c YES1; conditions: at 1 µM
[10] = molecular target: Rho-associated protein kinase 2 (Homo sapiens, UniProt O75116); assay: Selectivity interaction (ActivX KiNativ screen (ex vivo kinase selectivity in human PBMCs)) EUB0001619a ROCK2; type: cell-based; conditions: PBMC, at 1 µM
[11] = molecular target: Tyrosine-protein kinase BTK (Homo sapiens, UniProt Q06187); assay: Selectivity interaction (KinomeScan (DiscoverX)) EUB0000607a BTK; conditions: at 10 µM

Ephrin type-A receptor 2 (Homo sapiens), sequence (P29317 whole entry): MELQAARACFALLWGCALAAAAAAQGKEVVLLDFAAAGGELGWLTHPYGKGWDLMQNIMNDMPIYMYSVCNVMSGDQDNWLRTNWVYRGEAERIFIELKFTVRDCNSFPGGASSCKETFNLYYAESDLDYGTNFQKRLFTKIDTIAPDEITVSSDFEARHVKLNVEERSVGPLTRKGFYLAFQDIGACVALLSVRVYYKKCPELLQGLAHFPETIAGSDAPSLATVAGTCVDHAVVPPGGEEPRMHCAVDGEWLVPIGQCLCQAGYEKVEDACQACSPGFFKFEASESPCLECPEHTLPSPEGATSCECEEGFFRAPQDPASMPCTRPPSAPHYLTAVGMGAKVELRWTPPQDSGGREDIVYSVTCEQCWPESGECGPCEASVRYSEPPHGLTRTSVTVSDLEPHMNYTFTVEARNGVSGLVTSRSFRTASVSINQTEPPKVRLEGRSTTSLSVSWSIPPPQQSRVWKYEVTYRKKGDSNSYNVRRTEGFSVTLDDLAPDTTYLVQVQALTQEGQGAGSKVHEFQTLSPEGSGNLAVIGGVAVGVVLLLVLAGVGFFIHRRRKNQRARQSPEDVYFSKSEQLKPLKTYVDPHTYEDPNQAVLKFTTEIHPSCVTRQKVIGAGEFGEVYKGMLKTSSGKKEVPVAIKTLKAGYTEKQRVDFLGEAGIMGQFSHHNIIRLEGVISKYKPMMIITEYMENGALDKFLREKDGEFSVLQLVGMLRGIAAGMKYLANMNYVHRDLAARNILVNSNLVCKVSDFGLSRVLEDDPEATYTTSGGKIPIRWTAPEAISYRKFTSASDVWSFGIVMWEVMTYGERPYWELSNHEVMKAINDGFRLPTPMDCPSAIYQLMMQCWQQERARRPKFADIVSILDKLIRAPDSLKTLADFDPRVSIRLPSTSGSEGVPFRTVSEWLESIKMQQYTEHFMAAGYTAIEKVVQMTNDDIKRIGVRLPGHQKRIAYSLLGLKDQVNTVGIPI
Serine/threonine-protein kinase MRCK alpha (Homo sapiens), sequence (Q5VT25 whole entry): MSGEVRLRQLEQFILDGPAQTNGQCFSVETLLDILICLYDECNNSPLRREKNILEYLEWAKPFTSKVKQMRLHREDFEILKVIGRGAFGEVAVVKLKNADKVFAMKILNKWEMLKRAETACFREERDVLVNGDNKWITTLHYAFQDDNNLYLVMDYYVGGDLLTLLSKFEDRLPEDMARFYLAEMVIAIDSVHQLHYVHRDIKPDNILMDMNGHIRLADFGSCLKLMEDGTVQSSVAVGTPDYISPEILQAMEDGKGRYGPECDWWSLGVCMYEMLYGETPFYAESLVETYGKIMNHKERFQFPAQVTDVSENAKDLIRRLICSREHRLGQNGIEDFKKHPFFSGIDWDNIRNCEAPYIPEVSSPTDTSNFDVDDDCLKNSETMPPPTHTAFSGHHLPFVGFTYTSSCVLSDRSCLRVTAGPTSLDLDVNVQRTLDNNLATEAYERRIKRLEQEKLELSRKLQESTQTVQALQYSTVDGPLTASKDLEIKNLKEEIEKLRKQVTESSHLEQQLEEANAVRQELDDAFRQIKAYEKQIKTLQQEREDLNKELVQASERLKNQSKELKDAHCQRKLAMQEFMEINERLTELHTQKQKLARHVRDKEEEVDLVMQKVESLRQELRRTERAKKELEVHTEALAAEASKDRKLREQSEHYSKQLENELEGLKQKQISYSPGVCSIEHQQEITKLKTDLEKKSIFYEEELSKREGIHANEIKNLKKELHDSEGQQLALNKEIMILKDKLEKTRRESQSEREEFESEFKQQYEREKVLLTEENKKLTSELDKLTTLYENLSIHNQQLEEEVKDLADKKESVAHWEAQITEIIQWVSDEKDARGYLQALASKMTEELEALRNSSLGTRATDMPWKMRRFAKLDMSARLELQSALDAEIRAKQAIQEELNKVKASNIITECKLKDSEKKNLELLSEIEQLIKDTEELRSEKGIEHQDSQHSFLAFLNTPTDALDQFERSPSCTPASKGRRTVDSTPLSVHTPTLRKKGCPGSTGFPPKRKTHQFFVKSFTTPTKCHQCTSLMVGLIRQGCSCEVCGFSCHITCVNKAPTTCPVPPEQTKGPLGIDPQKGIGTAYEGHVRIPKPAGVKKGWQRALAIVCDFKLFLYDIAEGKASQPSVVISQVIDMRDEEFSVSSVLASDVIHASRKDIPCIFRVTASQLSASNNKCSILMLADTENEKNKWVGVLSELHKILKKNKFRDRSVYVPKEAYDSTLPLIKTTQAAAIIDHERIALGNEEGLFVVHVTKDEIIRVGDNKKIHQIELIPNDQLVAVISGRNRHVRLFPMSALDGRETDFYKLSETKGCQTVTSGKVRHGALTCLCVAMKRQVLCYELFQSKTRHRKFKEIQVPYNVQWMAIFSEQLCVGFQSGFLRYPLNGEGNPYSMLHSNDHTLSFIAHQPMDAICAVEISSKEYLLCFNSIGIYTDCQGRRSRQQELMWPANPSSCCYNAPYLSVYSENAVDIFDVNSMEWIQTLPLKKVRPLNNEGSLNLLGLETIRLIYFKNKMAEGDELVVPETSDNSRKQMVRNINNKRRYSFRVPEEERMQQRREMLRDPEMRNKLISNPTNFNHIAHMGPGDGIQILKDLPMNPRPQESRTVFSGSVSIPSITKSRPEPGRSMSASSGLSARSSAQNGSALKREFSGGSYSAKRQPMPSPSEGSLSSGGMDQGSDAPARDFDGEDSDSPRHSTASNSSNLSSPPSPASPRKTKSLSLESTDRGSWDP
Ribosomal protein S6 kinase alpha-1, sequence (Q15418 whole entry): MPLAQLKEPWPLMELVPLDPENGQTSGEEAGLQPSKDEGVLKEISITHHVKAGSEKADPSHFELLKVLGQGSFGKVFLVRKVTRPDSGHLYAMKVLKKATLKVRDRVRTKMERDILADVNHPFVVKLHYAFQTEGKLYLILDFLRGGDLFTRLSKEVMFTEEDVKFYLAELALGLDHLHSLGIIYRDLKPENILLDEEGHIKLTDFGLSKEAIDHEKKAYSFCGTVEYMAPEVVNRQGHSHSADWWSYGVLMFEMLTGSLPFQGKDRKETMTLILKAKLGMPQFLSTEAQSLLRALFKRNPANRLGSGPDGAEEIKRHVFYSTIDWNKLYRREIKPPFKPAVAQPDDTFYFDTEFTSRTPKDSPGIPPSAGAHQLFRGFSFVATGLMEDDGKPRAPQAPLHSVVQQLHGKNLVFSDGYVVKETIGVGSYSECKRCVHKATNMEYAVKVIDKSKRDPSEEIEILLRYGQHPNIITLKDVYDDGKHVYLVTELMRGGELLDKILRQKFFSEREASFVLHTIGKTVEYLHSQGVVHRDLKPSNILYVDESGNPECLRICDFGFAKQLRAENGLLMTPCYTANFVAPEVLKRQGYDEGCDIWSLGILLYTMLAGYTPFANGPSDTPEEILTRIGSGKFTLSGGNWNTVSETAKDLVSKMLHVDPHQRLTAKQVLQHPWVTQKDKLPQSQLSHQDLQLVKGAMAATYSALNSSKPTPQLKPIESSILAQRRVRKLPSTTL
Rho-associated protein kinase 2, sequence (O75116 whole entry, looked up): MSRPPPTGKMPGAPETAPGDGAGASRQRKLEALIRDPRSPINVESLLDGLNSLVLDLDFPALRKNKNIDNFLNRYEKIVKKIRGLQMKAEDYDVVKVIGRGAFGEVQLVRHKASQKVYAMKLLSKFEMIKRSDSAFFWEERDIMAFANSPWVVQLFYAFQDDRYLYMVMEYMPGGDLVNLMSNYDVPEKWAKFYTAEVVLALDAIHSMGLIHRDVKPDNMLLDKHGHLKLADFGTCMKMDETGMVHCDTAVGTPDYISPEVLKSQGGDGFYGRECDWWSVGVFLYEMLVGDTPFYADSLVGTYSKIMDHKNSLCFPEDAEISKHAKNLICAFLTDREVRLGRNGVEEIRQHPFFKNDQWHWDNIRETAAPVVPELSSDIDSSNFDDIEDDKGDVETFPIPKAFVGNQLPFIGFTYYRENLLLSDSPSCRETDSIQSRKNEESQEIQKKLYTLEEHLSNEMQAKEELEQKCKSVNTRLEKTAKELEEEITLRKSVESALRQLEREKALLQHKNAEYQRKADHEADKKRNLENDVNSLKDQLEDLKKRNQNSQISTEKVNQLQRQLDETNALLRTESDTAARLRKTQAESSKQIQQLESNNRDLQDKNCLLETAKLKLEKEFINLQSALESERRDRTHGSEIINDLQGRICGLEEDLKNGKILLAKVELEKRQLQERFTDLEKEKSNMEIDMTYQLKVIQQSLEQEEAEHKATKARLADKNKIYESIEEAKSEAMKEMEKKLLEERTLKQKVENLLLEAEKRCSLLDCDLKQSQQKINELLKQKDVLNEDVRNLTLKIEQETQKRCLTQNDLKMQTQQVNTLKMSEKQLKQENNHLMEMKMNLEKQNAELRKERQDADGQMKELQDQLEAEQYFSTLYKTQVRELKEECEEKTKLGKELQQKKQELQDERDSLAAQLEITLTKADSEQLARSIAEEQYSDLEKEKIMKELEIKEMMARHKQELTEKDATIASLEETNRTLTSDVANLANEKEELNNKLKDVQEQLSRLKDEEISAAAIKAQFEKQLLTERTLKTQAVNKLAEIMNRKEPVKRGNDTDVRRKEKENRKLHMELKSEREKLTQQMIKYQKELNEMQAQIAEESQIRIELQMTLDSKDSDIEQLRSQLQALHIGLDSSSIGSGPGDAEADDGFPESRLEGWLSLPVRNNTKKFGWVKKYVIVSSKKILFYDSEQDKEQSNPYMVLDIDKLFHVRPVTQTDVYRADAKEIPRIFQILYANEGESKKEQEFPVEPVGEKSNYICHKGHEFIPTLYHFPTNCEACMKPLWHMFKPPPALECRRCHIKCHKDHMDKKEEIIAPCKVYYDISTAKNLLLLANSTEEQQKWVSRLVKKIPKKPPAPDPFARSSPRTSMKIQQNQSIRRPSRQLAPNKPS

CC[C@@H]1[C@H](F)C(=O)N[C@@H]1COc1nccc2cc(C(N)=O)c(OC)cc12 [ZIMLOVISERTIB]
% of inhibition [1]: -1%
% of inhibition [2]: -38%

Cc1cc(CN)cc(C)c1-c1ncn(C)c1-c1cncn1C
Kd [3]: 144 µM

COCC(=O)NC/C=C/c1ccc2ncnc(Nc3ccc(Oc4ccc(C)nc4)c(C)c3)c2c1 [CP-724714]
% of control [4]: 25%

COc1cc(N(C)c2ccnc3ccc(C(F)(F)F)cc23)cc(OC)c1OC
% binding [5]: 100%

Nc1cnc(N2CCc3cc(S(=O)(=O)Nc4c(F)cc(Cl)cc4F)cc(N4CCCC4=O)c32)nc1 [TP-020n]
% of control [6]: 100%
% of control [7]: 93%

C=CC(=O)Nc1cccc(C(=O)Nc2ccc(Nc3cc(-c4[nH]c(SC)nc4C)ccn3)cc2)c1
% of control ([8]; at 1 µM): 76%
% of control ([8]; at 5 µM): 37%

Cc1ccc(-c2ccc3c(ccc4sc5c(c43)NC[C@@H](C)NC5=O)n2)cn1
% of inhibition [9]: 31%

N#Cc1cccc(-c2c[nH]c3ncnc(N4CCOCC4)c23)c1
% of inhibition [10]: 2%

CNC(=O)Nc1ccc(-c2nc(N3CC4CCC(C3)O4)c3cnn(C4CCC5(CC4)OCCO5)c3n2)cc1
% of control [11]: 90%
